Like-named read-outs stand apart in the source and are kept apart here.
Assays:
SHP2 (full length) = biological target: T1, SHP2 (full length) (Homo sapiens, UniProt Q06124); assay: Phosphatase assay (PTPase assay) with DiFMUP substrate; format: biochemical; conditions: SHP2 activated with SHP2 activating peptide, DiFMUP 80 μM, 2 hours, fluorescence
T1 construct: SHP2 (full length, diluted to 100 pM final concentration in reaction buffer, BPS bioscience, US); purchased BPS bioscience, US
T1 sequence (Q06124 1-593): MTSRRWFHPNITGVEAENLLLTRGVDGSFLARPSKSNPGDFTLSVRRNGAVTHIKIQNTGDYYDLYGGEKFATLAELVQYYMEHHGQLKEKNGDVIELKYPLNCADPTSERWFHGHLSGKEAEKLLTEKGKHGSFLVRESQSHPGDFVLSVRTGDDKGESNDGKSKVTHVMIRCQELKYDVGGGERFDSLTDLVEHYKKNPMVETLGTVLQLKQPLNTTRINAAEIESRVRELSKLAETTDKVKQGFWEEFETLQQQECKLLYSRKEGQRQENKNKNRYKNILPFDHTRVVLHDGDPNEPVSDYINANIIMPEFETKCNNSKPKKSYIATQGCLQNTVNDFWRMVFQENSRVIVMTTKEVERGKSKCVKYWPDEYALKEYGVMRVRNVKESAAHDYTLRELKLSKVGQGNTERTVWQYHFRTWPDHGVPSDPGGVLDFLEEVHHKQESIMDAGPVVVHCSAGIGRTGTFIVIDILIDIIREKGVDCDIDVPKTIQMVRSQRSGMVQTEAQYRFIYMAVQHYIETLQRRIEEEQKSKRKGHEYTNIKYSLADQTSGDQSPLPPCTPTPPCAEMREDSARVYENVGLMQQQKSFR

[1] = system: phospho-ERK in MIA PaCa2 or H358 cells; assay: Phospho-ERK assay (AlphaLisa); format: cell-based
[2] = 1.5 h, MIA PaCa2 or H358 cells, compound incubated 1.5 hours, read-out: IC50 (p-ERK)
[3] = MIA PaCa2 or H358 cells, compound incubated 1.5 hours, read-out: IC50 (p-ERK)

Compound	IC50 (SHP2 (full length); read-out: IC50 (PTPase aS say))	IC50 [1, 2]	IC50 [1, 3]	IC50 (SHP2 (full length); IC50 (PTPase aS say, nM))	IC50 ([1]; 1.5 h, read-out: IC50 (p-ERK, nM))
Cn1c(N2CCN[C@@H](CN)C2)nc(N)c(Sc2cccc(Cl)c2Cl)c1=O [Example 196]	> 100 nM	> 1500 nM			
CC(=O)Cn1cnc2ccc(Sc3cnc(N4CCC5(CC4)Cc4ncccc4[C@H]5N)cn3)c(Cl)c2c1=O [Example 112]	< 3 nM		< 45 nM		
C[C@@H]1OCC2(CCN(c3cnc(Sc4ccc5ncn(CC(O)CO)c(=O)c5c4Cl)cn3)CC2)[C@@H]1N (stereo partly drawn) [Example 122, 6-((5-((3S,4S)-4-amino-3-methyl-2-oxa-8-azaspiro[4,5]decan-8-yl)pyrazin-2-yl)thio)-5-chloro-3-(2,3-dihydroxypropyl)quinazolin-4(3H)-one]	< 3 nM		< 45 nM		
C[C@@H]1OCC2(CCN(c3cnc(Sc4ccc5ncn(Cc6ccccc6)c(=O)c5c4Cl)cn3)CC2)[C@@H]1N [Example 18, 6-((5-((3S,4S)-4-amino-3-methyl-2-oxa-8-azaspiro[4.5]decan-8-yl)pyrazin-2-yl)thio)-3-benzyl-5-chloroquinazolin-4(3H)-one]	< 3 nM		< 45 nM		
C[C@@H]1OCC2(CCN(c3cnc(Sc4cccc(S(=O)(=O)F)c4Cl)cn3)CC2)[C@@H]1N [Example 11, 3-((5-((3S,4S)-4-amino-3-methyl-2-oxa-8-azaspiro[4.5]decan-8-yl)pyrazin-2-yl)thio)-2-chlorobenzenesulfonyl fluoride]				< 3 nM	< 45 nM
Cn1c(N2CCN(CC(N)Cc3cccnc3)CC2)nc(N)c(Sc2cccc(Cl)c2Cl)c1=O (stereo not shown) [Example 188, 6-amino-2-(4-(2-amino-3-(pyridin-3-yl)propyl)piperazin-1-yl)-5-((2,3-dichlorophenyl)thio)-3-methylpyrimidin-4(3H)-one]	> 100 nM	> 1500 nM			
C[C@@H]1OCC2(CCN(c3cnc(Sc4cccc(S(N)(=O)=O)c4Cl)c(N)n3)CC2)[C@@H]1N [Example 12, 3-((3-amino-5-((3S,4S)-4-amino-3-methyl-2-oxa-8-azaspiro[4.5]decan-8-yl)pyrazin-2-yl)thio)-2-chlorobenzenesulfonamide]	3 to 100 nM		45 to 1500 nM		
C[C@@H]1OCC2(CCN(c3cnc(Sc4cccc(S(=O)(=O)NCc5ccccc5)c4Cl)cn3)CC2)[C@@H]1N [Example 10, 3-((5-((3S,4S)-4-amino-3-methyl-2-oxa-8-azaspiro[4.5]decan-8-yl)pyrazin-2-yl)thio)-N-benzyl-2-chlorobenzenesulfonamide]	3 to 100 nM	< 45 nM			
C[C@@H]1OCC2(CCN(c3cnc(Sc4ccc5ncn(Cc6ccn(C)n6)c(=O)c5c4Cl)cn3)CC2)[C@@H]1N [Example 53, 6-((5-((3S,4S)-4-amino-3-methyl-2-oxa-8-azaspiro[4.5]decan-8-yl)pyrazin-2-yl)thio)-5-chloro-3-((1-methyl-1H-pyrazol-3-yl)methyl)quinazolin-4(3H)-one]	3 to 100 nM	< 45 nM			
CC1(CN)CCN(c2cnc(Sc3ccc4nc[nH]c(=O)c4c3Cl)cn2)CC1 [Example 3, 6-((5-(4-(aminomethyl)-4-methylpiperidin-1-yl)pyrazin-2-yl)thio)-5-chloroquinazolin-4(3H)-one]	3 to 100 nM	45 to 1500 nM			
C[C@@H]1OCC2(CCN(c3cnc(Sc4ccc5ncn(CCN(C)C)c(=O)c5c4Cl)cn3)CC2)[C@@H]1N [Example 67, 6-((5-((3S,4S)-4-amino-3-methyl-2-oxa-8-azaspiro[4.5]decan-8-yl)pyrazin-2-yl)thio)-5-chloro-3-(2-(dimethylamino)ethyl)quinazolin-4(3H)-one]	3 to 100 nM	45 to 1500 nM			
C[C@@H]1OCC2(CCN(c3cnc(Sc4ccc5nc(Cc6ccccc6)[nH]c5c4Cl)cn3)CC2)[C@@H]1N [Example 50, (3S,4S)-8-(5-((2-benzyl-7-chloro-1H-benzo[d]imidazol-6-yl)thio)pyrazin-2-yl)-3-methyl-2-oxa-8-azaspiro[4.5]decan-4-amine]	3 to 100 nM	45 to 1500 nM			
C[C@@H]1OCC2(CCN(c3cnc(Sc4ccc5c(c4Cl)C(=O)N(Cc4ccccc4)C5)cn3)CC2)[C@@H]1N [Example 133, 6-((5-((3S,4S)-4-amino-3-methyl-2-oxa-8-azaspiro[4,5]decan-8-yl)-pyrazin-2-yl)thio)-2-benzyl-7-chloroisoindolin-1-one]	3 to 100 nM	45 to 1500 nM			

The next lines start with results.

IC50 (SHP2 (full length); read-out: IC50 (PTPase aS say))	IC50 [1, 2]	Compound	IC50 [1, 3]	IC50 (SHP2 (full length); IC50 (PTPase aS say, nM))	IC50 ([1]; 1.5 h, read-out: IC50 (p-ERK, nM))
3 to 100 nM	45 to 1500 nM	COCCn1cnc2ccc(Sc3cnc(N4CCC5(CC4)Cc4nc(Cl)sc4[C@@H]5N)cn3)c(Cl)c2c1=O [Example 157, 6-[5-[(6R)-6-amino-2-chloro-spiro[4,6-dihydrocyclopenta[d]thiazole-5,4′-piperidin]-1′-yl]pyrazin-2-yl]sulfanyl-5-chloro-3-(2-methoxyethyl)quinazolin-4-one]			
3 to 100 nM	45 to 1500 nM	COCCn1cnc2ccc(Sc3ncc(N4CCC5(CC4)Cc4ncccc4[C@H]5N)nc3N)c(Cl)c2c1=O [Example 134]			
< 3 nM	< 45 nM	C[C@@H]1OCC2(CCN(c3cnc(Sc4ccc5nc(Oc6cccnc6)[nH]c5c4Cl)cn3)CC2)[C@@H]1N [Example 128]			
3 to 100 nM	< 45 nM	C[C@@H]1OCC2(CCN(c3cnc(Sc4ccc5ncn(Cc6cncnc6)c(=O)c5c4Cl)cn3)CC2)[C@@H]1N [Example 46, 6-((5-((3S,4S)-4-amino-3-methyl-2-oxa-8-azaspiro[4.5]decan-8-yl)pyrazin-2-yl)thio)-5-chloro-3-(pyrimidin-5-ylmethyl)quinazolin-4(3H)-one]			
< 3 nM	< 45 nM	COCCn1cnc2ccc(Sc3cnc(N4CCC5(CC4)Cc4ncsc4[C@H]5N)c(C(N)=O)n3)c(Cl)c2c1=O [Example 171, (S)-3-(6-amino-4,6-dihydrospiro[cyclopenta[d]thiazole-5,4′-piperidin]-1′-yl)-6-((5-chloro-3-(2-methoxyethyl)-4-oxo-3,4-dihydroquinazolin-6-yl)thio)pyrazine-2-carboxamide]			
< 3 nM	45 to 1500 nM	C[C@@H]1OCC2(CCN(c3cnc(Sc4ccc5ncn(-c6ccccc6)c(=O)c5c4Cl)cn3)CC2)[C@@H]1N [Example 51, 6-((5-((3S,4S)-4-amino-3-methyl-2-oxa-8-azaspiro[4.5]decan-8-yl)pyrazin-2-yl)thio)-5-chloro-3-phenylquinazolin-4(3H)-one]			
3 to 100 nM	45 to 1500 nM	CC(C)(O)Cn1cnc2ccc(Sc3cnc(N4CCC5(CC4)Cc4ncsc4[C@@H]5N)cn3)c(Cl)c2c1=O [Example 146]			
< 3 nM	< 45 nM	C[C@@H]1OCC2(CCN(c3cnc(Sc4ccc5ncn(Cc6ccnc(Cl)c6)c(=O)c5c4Cl)cn3)CC2)[C@@H]1N [Example 60, 6-((5-((3S,4S)-4-amino-3-methyl-2-oxa-8-azaspiro[4.5]decan-8-yl)pyrazin-2-yl)thio)-5-chloro-3-((2-chloropyridin-4-yl)methyl)quinazolin-4(3H)-one]			
< 3 nM	< 45 nM	C[C@@H]1OCC2(CCN(c3cnc(Sc4ccc5ncn(Cc6cccnc6)c(=O)c5c4Cl)cn3)CC2)[C@@H]1N [Example 20, 6-((5-((3S,4S)-4-amino-3-methyl-2-oxa-8-azospiro[4.5]decan-8-yl)pyrazin-2-yl)thio)-5-chloro-3-(pyridin-3-ylmethyl)quinazolin-4H-one]			
< 3 nM	45 to 1500 nM	COCCn1cnc2ccc(Sc3cnc(N4CCC5(CCC[C@H]5N)CC4)cn3)c(Cl)c2c1=O [Example 180, (R)-6-((5-(1-amino-8-azaspiro[4.5]decan-8-yl)pyrazin-2-yl)thio)-5-chloro-3-(2-methoxyethyl)quinazolin-4(3H)-one]			
< 3 nM	< 45 nM	COCCn1cnc2ccc(Sc3cnc(N4CCC5(CC4)Cc4ccc(OC)cc4[C@H]5N)cn3)c(Cl)c2c1=O [Example 158, 6-[5-[(1S)-1-amino-6-methoxy-spiro[indane-2,4′-piperidin]-1′-yl]pyrazin-2-yl]sulfanyl-5-chloro-3-(2-methoxyethyl)quinazolin-4-one]			
< 3 nM	< 45 nM	C[C@@H]1OCC2(CCN(c3cnc(Sc4ccc5ncn(CC6(F)COC6)c(=O)c5c4Cl)cn3)CC2)[C@@H]1N [Example 80, 6-((5-((3S,4S)-4-amino-3-methyl-2-oxa-8-azaspiro[4.5]decan-8-yl)pyrazin-2-yl)thio)-5-chloro-3-((3-fluorooxetan-3-yl)methyl)quinazolin-4(3H)-one]			
< 3 nM	< 45 nM	COCCn1cnc2ccc(Sc3ncc(N4CCC5(CC4)CO[C@@H](C)[C@H]5N)nc3N)c(Cl)c2c1=O [Example 143, 6-((3-amino-5-((3S,4S)-4-amino-3-methyl-2-oxa-8-azaspiro[4.5]decan 8-yl)pyrazin-2-yl)thio)-5-chloro-3-(2-methoxyethyl)quinazolin-4(3H)-one]			

Source: US12029739B2, “SHP2 inhibitor and use thereof” (KANAPH THERAPEUTICS INC., priority 2021, dated 2024)
